According to patent publication US20120323022A1, “(2'S)-COLUMBIANETIN ISOLATED FROM CORYDALIS HETEROCARPA AND COMPOSITION CONTAINING THE SAME” (priority 2011, published 2012):

Assays:
Format in all cases: cell-based, Human
p38 MAPK = assay: Western blot, phosphorylated p38 MAPK in UVB-exposed cells; conditions: UVB-exposed HaCaT cells, FIG. 6
Description: (§1) Human keratinocyte (HaCaT, Korean Cell Line Bank, Seoul, Korea) cells were grown in Dulbecco's modified Eagle medium (DMEM, Gibco-BRL, Gaithersbrug, Md., USA) containing 10% fetal bovine serum (FBS), 2 mM glutamine and 100 μg/mL penicillin-streptomycin (Gibco-BRL, Gaithersbrug, Md., USA) at 37° C. humidified atmosphere of 5% CO2. Cells were sub-cultured to about 90-95% confluence by detaching with trypsin-EDTA solution.
(§2) Whole cells were lysed in RIPA buffer (Sigma-Aldrich Corp., St. Louis, USA) at 4° C. for 30 min. After centrifugation, total protein amount of cell lysates were determined using Lowry method (BioRad Laboratories, Hercules, Calif.). […] Bound antibodies were detected by horseradish peroxidase-conjugated secondary antibodies for 1 h at room temperature and the immunoreactive proteins were detected using a chemiluminescent ECL assay kit (Amersham Pharmacia Biosciences, England, UK) according to the manufacturer's instructions. […]

[1] = test system: extracellular signal-related kinase (ERK1/2); assay: Western blot, phosphorylated ERK1/2 in UVB-exposed cells; conditions: UVB-exposed HaCaT cells, FIG. 6
Description: as §1, §2

HaCaT cells [2] = assay: MTT assay, viability of UVB-exposed keratinocyte cells; conditions: UVB 40 mJ/cm^2, incubation 24 h, compared with only UVB-exposed cells, FIG. 2A
Description: as §1
The viability levels of keratinocyte cells were determined by the ability of mitochondria to convert 3-(4,5-dimethylthiazol-2-yl)-2,5-diphenyl tetrazolium bromide (MTT) to insoluble formazan product. Briefly, cells were grown in 96-well plates at a density of 1×10^4 cells/well. After incubation for 24 h, the cells were stimulated by UVB irradiation (40 mJ/cm^2) and incubated for 24 h in the absence or presence of (2′S)-columbianetin at 37° C. under a humidified atmosphere of 5% CO2. The supernatant medium was removed and 100 μL of 1 mg/mL MTT reagent was added to each well, followed by incubation for 4 h. After removal of unconverted MTT, the amount of formazan in the cells was determined by adding DMSO (dimethyl sulfoxide) to wells and measuring optical density (OD) at 540 nm using a microplate reader (Tacan Austria GmbH, Salzburg, Austria). Relative cell viability was calculated as the percentage of viability of untreated cells that were considered the control. […]

c-fos = assay: Western blot, AP-1 activation (c-fos) in UVB-exposed cells; conditions: UVB-exposed HaCaT cells, FIG. 7A
Description: as §1, §2

intracellular ROS = assay: Intracellular ROS generation (DCFH-DA) in UVB-exposed cells; conditions: UVB 40 mJ/cm^2, treated 24 h, FIG. 3
Description: as §1
The levels of intracellular ROS generation were detected using the oxidation sensitive dye 2′,7′-dichlorofluorescin diacetate (DCFH-DA). The cells were grown in a 96-well microplate with fluorescence for 24 h and followed by exposure to UVB (40 mJ/cm^2). The exposed cells were treated with (2′S)-columbianetin for 24 h and then they were loaded with 20 μM of DCFH-DA in PBS and incubated for 30 min in the dark at 37° C. under a humidified atmosphere with 5% CO2. Finally, cells were washed twice with PBS and the fluorescence of DCF in PBS was detected at an excitation wavelength of 485 nm and an emission wavelength of 535 nm using a fluorescence microplate reader (Tacan Austria GmbH, Salzburg, Austria) and the result is shown in FIG. 3.

HaCaT cells [3] = assay: LDH release assay, cell injury of UVB-exposed cells; conditions: UVB 40 mJ/cm^2, incubation 24 h, FIG. 2B
Description: as §1
Cell injury was measured by quantifying the amount of lactate dehydrogenase (LDH)-release using a commercial LDH cytotoxicity detection kit (TaKaRa Biomedicals, Tokyo, Japan). Cells were exposed according to the experiment design. The conditioned medium of the UVB-exposed cells was collected for LDH measurement. The substrate mix solution was added to aliquots of the supernatant medium at 1:1 ratio and incubated at 37° C. for 30 min under light protected conditions. Then, the absorbance was determined at 490 nm immediately after the addition of 1N HCl stop solution (final concentration, 0.2 N) using a microplate reader (Tacan Austria GmbH, Salzburg, Austria). Control was prepared with 0.1% (w/v) Triton X-100, which was defined as 100% LDH release.
(§3) Based on the above results, effects of (2′S)-columbianetin on the viability and injury degree of UVB-exposed keratinocyte cells were examined at incubation for 24 h after UVB exposure of 40 mJ/cm^2.

[4] = test system: genomic DNA of keratinocyte cells; assay: Genomic DNA extraction and DNA oxidation, agarose gel; conditions: UVB-stimulated cells, FIG. 4
Description: as §1
Genomic DNA was isolated from keratinocyte cells using standard phenol/proteinase K procedure with slight modifications (J. Sambrook, D. W. Russell, Molecular Cloning: A Laboratory Manual; 3rd ed. Cold Spring Harbor Laboratory Press: Cold Spring Harbor. 2001). In brief, UVB-stimulated cells in the presence and absence of sample were washed twice with PBS and collected using 1 mL of PBS containing 10 mM EDTA. After centrifugation at 13,400×g for 5 min at 4° C., the deposited cells were resuspended in 410 μL of solution including RNase A (0.5 mg/mL), proteinase K (10 mg/mL), SDS (10%) and NaOAC (0.2 M). After that, this mixture was incubated at 37° C. for 30 min and 55° C. for 1 h. Following incubation, phenol:chloroform:iso-amylalcohol (25:24:1) was added at 1:1 ratio, after which the mixture was centrifuged at 13,400×g for 5 min at 4° C. […] Purity of DNA was determined by ratio of absorbance at 260 and 280 nm using spectrophotometric assay. […]

HaCaT cells [5] = assay: Microscopic image of morphological changes in UVB-exposed cells; conditions: UVB 40 mJ/cm^2, microscopic image, FIG. 2C
Description: as §1
To determine the appropriate energy level of UVB irradiation, the cytotoxicity of keratinocytes cultured from the above was determined by comparing the data obtained from MTT and LDH leakage for 6, 12, 24 and 48 h after UVB irradiation from 10 to 3000 mJ/cm^2. Exposure of cells to UVB energy induced significant decrease of cell viability (FIG. 1A) and increase of LDH release in a UVB exposure-dependent manner (FIG. 1B). Morphological changes in keratinocyte cells for different incubation periods (6, 12, 24 and 48 h) after UVB exposure of cells in a range of 10-3000 mJ/cm^2 were compared (FIG. 1C). A larger proportion of cells were swelling and dying in a dose- and time-dependent manner.
as §3

Bax = assay: Western blot, Bax in UVB-exposed cells; conditions: UVB-exposed HaCaT cells, FIG. 7B
Description: as §1, §2

p53 = assay: Western blot, phosphorylated p53 in UVB-exposed cells; conditions: UVB-exposed HaCaT cells, FIG. 7B
Description: as §1, §2

TIMP-1 = assay: RT-PCR and Western blot, TIMP-1 expression in UVB-exposed cells; conditions: HaCaT, UVB 40 mJ/cm^2, FIG. 5
Description: as §1
(§4) Total cellular RNA was isolated using Trizol reagent (Invitrogen Co., CA, USA). The 2 μg of isolated RNA was reverse transcribed into cDNA using oligo-(dT) primer (Promega, Madison, Wis., USA). […] Finally, the relative band densities were determined using a LAS3000® Luminescent image analyzer (Fujifilm Life Science, Tokyo, Japan).
as §2

[6] = test system: c-Jun N-terminal kinase (JNK); assay: Western blot, phosphorylated JNK in UVB-exposed cells; conditions: UVB-exposed HaCaT cells, FIG. 6
Description: as §1, §2

MMP-2 (gelatinase A) = assay: RT-PCR and Western blot, MMP-2 expression in UVB-exposed cells; conditions: HaCaT, UVB 40 mJ/cm^2, RT-PCR and Western blot, FIG. 5
Description: as §1, §4, §2

MMP-9 (gelatinase B) = assay: RT-PCR and Western blot, MMP-9 expression in UVB-exposed cells; conditions: HaCaT, UVB 40 mJ/cm^2, RT-PCR and Western blot, FIG. 5
Description: as §1, §4, §2

TIMP-2 = assay: RT-PCR and Western blot, TIMP-2 expression in UVB-exposed cells; conditions: HaCaT, UVB 40 mJ/cm^2, FIG. 5
Description: as §1, §4, §2

## CC(C)(O)C1Cc2c(ccc3ccc(=O)oc23)O1 (stereo not drawn) [(2′S)-columbianetin]
p38 MAPK
  expression of phosphorylated p38 MAPK protein: effectively decreased the regulations
[1]
  expression of phosphorylated ERK1/2 protein: effectively decreased the regulations
HaCaT cells [2]
  cell viability (MTT): substantially increased cell viability in a dose-dependent manner
c-fos
  activated nuclear transcription factor c-fos: significantly down-regulated
Intracellular ROS
  DCF fluorescence intensity (intracellular ROS): significantly reduced DCF fluorescence intensity in a dose-dependent manner
HaCaT cells [3]
  degree of cell injury (LDH release): substantially decreased the degree of cell injury by UVB exposure in a dose-dependent manner
[4]
  protective effect on DNA damage due to UVB exposure: adequate protective effect on DNA damage
HaCaT cells [5]
  morphological changes in cells due to UV: effectively suppressed the morphological changes in cells
Bax
  expression level of Bax protein: the increments were suppressed
p53
  expression level of phosphorylated p53: the increments were suppressed
TIMP-1
  TIMP-1 expression: dose-dependently enhanced
[6]
  expression of phosphorylated JNK protein: effectively decreased the regulations
MMP-2 (gelatinase A)
  expression level of UVB-mediated gelatinase A (MMP-2) gene and protein: reduced by (2′S)-columbianetin in a dose-dependent manner
MMP-9 (gelatinase B)
  expression level of UVB-mediated gelatinase B (MMP-9) gene and protein: reduced by (2′S)-columbianetin in a dose-dependent manner
TIMP-2
  TIMP-2 expression: dose-dependently enhanced
